In this assay the target is T1, Orexin receptor type 2 (Homo sapiens, UniProt O43614).
T1 sequence (O43614 whole entry): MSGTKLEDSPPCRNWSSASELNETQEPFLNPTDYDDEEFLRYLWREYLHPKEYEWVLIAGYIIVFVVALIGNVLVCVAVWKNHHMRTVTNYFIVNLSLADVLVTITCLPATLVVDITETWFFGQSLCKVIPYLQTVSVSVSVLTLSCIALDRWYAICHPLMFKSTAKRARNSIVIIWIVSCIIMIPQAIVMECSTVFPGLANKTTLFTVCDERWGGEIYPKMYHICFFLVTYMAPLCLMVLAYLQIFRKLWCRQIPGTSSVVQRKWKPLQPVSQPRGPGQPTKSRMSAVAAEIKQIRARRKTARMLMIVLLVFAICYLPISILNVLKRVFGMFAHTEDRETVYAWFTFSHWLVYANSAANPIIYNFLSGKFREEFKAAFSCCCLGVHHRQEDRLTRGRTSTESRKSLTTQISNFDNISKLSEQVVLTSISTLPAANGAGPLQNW
Put plainly: Agonist activity at human OX2R expressed in CHO cells. It counts as functional, cell-based.

As usually defined, the EC50 is the concentration that produces a half-maximal response. `CCN(C(=O)N[C@@H](C1CCCC(F)(F)C1)C(F)(F)F)[C@H](C)c1cccc(-c2cn3ccnc3c(OC)n2)c1` (stereo partly specified): the EC50 was determined as 0.9 nM.

These data come from ChEMBL document CHEMBL5120977, “Orexin Receptor Agonists as Possible Treatment for Narcolepsy and Idiopathic Hypersomnia” (ACS Med Chem Lett, 2022).
